Results published in patent publication US8236761B2, “C-Met receptor regulation by angiotensin IV (AT4) receptor ligands” (Washington State University Research Foundation, priority 2006, dated 2012).
Non-standard residues stand in square brackets, D forms with d. No end group written: not given here. Nle = CCCC[C@H](N)C(=O)O

How the values were obtained:
MDCK cells [1] = assay: HGF-induced MDCK cell scattering (coverslip assay); format: cell-based, canine
Protocol: FIG. 8A: Confluent MDCK cells on coverslips were treated with HGF (110 pM), or HGF (110 pM)+Norleual (100 pM) for 48 hours. Digital images of top, bottom, left, and right sectors were acquired and the scattering of cells In each digital image was scored in blinded fashion and normalized to control scores. The difference between HGF and HGF+Norleual groups was significant (*p=0.0245, n=3). Error bars indicate±SEM. FIG. 8B: MDCK cells were plated on 6 mm diameter coverslips in DMEM 10% FBS and grown to 100% confluency. The coverslips were then transferred to fresh 6 well plates and the cells were serum-deprived for 24 hours to synchronize the cells in the same growth state. Thereafter, the 20 ng/ml of HGF alone and in the presence of 10^−10 M Norleual in a 1% FBS DMEM was added to the cells. […] This ring was photographed and loaded on to NIH image J. Using NIH image J, the pixel count was determined for each ring. […]
Scattering assay. […] Scattering was scored in blinded fashion by comparison to a set of calibration scattering images by two investigators. […]
To explore the physiological significance of the angiotensin-like factor Norleual's ability to depress c-Met signaling, Norleual's effect on HGF induced cell scattering of Madin-Darby canine kidney (MDCK) cells was assessed with the coverslip assay (Miao et al., 2003 J. Cell Biol. 162: 1281-1292). […]

MDCK cells [2] = assay: HGF stimulated MDCK cell collagen I invasion (transwell chamber); format: cell-based, canine; conditions: HGF 20 ng/ml, twelve hours
Protocol: FIG. 9A: Modulation of HGF stimulated MDCK cell collagen I invasion in the Costar transwell chamber invasion assay. 50 μl of collagen I was added to the top chamber of the transwell chamber (BD Biosciences) and gelled by adjusting it to a physiological pH with a 1:1:1 mixture of 10× Modified Eagle's Medium, 1 M sodium bicarbonate, and 0.1 M sodium hydroxide for 30 minutes at 37° C. 50,000 MDCK cells in 1% FBS DMEM were seeded into the inside of the top chamber over the gelled collagen I solution and allowed to attach for two hours at 37° C. After the cells had attached to the collagen 1, the indicated concentrations of Norleual were added to the top chamber. […] The cells that had invaded the collagen and migrated to the underside of the membrane were counted in five random fields at 40× on a light microscope. The effect of treatment was determined using the one-way ANOVA with tukey's post-hoc analysis (Prism statistical analysis software). * indicates p<0.01 vs. HGF alone treatment. […] The cells that had invaded the collagen and migrated to the underside of the membrane were counted in five random fields at 40× on a light microscope. The effect of treatment was determined using the one-way ANOVA with tukey's post-hoc analysis (Prism statistical analysis software). * indicates p<0.05 vs. HGF treatment. […]

HUVECs = assay: Extracellular matrix related gene microarray in HUVECs; format: cell-based, human; conditions: 8 days, 1 pM
Protocol: Angiotensin-like factors as candidate c-Met receptor ligands were tested for the ability to modulate expression of extracellular matrix-related proteins in human umbilical vein endothelial cells (HUVECs) by gene microarray. Briefly, HUVECs were treated for 8 days in the presence or absence of test compounds at a concentration of 1 pM; Norleual (Compound 2, SEQ ID NO:43) was used as an exemplary angiotensin-like factor. RNA was harvested and transcriptional activities of 96 extracellular matrix related genes were assessed using gene microarrays.

Which results are given for “Nle-Tyr-Leu-ψ-His-Pro-Phe ([Nle]YLHPF; also: reduced peptide bond psi(CH2NH2) between Leu and His) [Norleual]”?
HGF-induced MDCK cell scattering (MDCK cells [1]; HGF 110 pM + Norleual 100 pM, 48 hours, FIG. 8A): inhibited; Hepatocyte growth factor-dependent cell scattering (MDCK cells [1]; HGF 20 ng/ml, COMPOUND 2 10^−10M, FIG. 7): inhibited; c-Met mediated collagen I invasion by MDCK cells (MDCK cells [2]): inhibition; c-Met mediated collagen I invasion by MDCK cells (MDCK cells [2]; listed as Compound 2): inhibited; Change in gene expression versus control: CD44, catenin, catenin β, catenin δ1, MMP-1, PAI-1, thrombospondin 1, integrin α-2 (HUVECs): at least two fold
